Measurements from PubChem BioAssay (NCI).
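Growth conditions: 96-well plates. Treatment: test compound, 48 hours, 5 concentrations. Analysis: linear interpolation between bracketing concentrations; unreached endpoints set to highest concentration. GI50 is the concentration that inhibits growth by half. Definition used: TGI = concentration required for complete inhibition of growth.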

Experiments:
Assay in all cases: growth of human tumour cells (NCI), 48 h; in the data active = GI50 below about 0.43 µM; inactive = the rest
[1] = tested on: HS 578T breast
[2] = tested on: OVCAR-8 ovarian
[3] = tested on: MOLT-4 leukemia
[4] = tested on: KM12 colon
[5] = tested on: HCT-116 colon
[6] = tested on: UACC-257 melanoma
[7] = tested on: MALME-3M melanoma
[8] = tested on: HT29 colon
[9] = tested on: MDA-MB-435
[10] = tested on: M14 melanoma
[11] = tested on: HOP-62 NSCLC
[12] = tested on: RPMI-8226 leukemia
[13] = tested on: SK-MEL-2 melanoma
[14] = tested on: K-562 leukemia
[15] = tested on: SNB-75 CNS
[16] = tested on: NCI-H23 lung
[17] = tested on: UO-31 renal
[18] = tested on: HOP-92 NSCLC
[19] = tested on: NCI-H522 lung
[20] = tested on: T-47D breast
[21] = tested on: A498 renal
[22] = tested on: SK-OV-3 ovarian
[23] = tested on: HL-60(TB) leukemia
[24] = tested on: NCI-H460 lung
[25] = tested on: COLO 205 colon
[26] = tested on: TK-10 renal
[27] = tested on: SK-MEL-5 melanoma
[28] = tested on: CCRF-CEM leukemia
[29] = tested on: UACC-62 melanoma
[30] = tested on: PC-3 prostate
[31] = tested on: NCI-H226 lung
[32] = tested on: SF-539 CNS
[33] = tested on: SF-268 CNS
[34] = tested on: OVCAR-3 ovarian
[35] = tested on: CAKI-1 renal
[36] = tested on: LOX IMVI melanoma
[37] = tested on: U251 CNS
[38] = tested on: RXF 393 renal
[39] = tested on: A549 NSCLC
[40] = tested on: BT-549 breast
[41] = tested on: SN12C renal
[42] = tested on: SF-295 CNS
[43] = tested on: SK-MEL-28 melanoma
[44] = tested on: SW-620 colon
[45] = tested on: OVCAR-4 ovarian
[46] = tested on: DU-145 prostate
[47] = tested on: HCC-2998 colon
[48] = tested on: OVCAR-5 ovarian
[49] = tested on: ACHN renal
[50] = tested on: HCT-15 colon
[51] = tested on: NCI/ADR-RES ovarian
[52] = tested on: SNB-19 CNS
[53] = tested on: MDA-MB-231 breast
[54] = tested on: SR leukemia
[55] = tested on: 786-0 renal
[56] = tested on: MCF7 breast
[57] = tested on: IGROV1 ovarian

C[C@H](O)CNc1cc(-c2[nH]c3cccnc3c2-c2ccc(F)cc2)ccn1
> 21.8 µM: TGI [57]
inactive: GI50 [1] 15.8 µM | GI50 [2] > 20.2 µM | GI50 [3] > 25 µM | GI50 [4] 22.1 µM | GI50 [5] 13.2 µM | GI50 [6] > 25 µM | GI50 [7] > 14.4 µM | GI50 [8] 10.1 µM | GI50 [9] > 23 µM | GI50 [10] > 25 µM | GI50 [11] 20.1 µM | GI50 [12] > 17.1 µM | GI50 [13] > 25 µM | GI50 [14] > 23 µM | GI50 [15] 11.8 µM | GI50 [16] > 25 µM | GI50 [17] 4.08 µM | GI50 [18] 1.59 µM | GI50 [19] > 25 µM | GI50 [20] 8.88 µM | GI50 [21] 4.19 µM | GI50 [22] 13.1 µM | GI50 [23] > 25 µM | GI50 [24] 8.43 µM | GI50 [25] 13.5 µM | GI50 [26] 10.3 µM | GI50 [27] 10.3 µM | GI50 [28] 20.1 µM | GI50 [29] 12.3 µM | GI50 [30] > 23 µM | GI50 [31] 12.9 µM | GI50 [32] > 25 µM | GI50 [33] 17.3 µM | GI50 [34] 22.2 µM | GI50 [35] 9.06 µM | GI50 [36] 12.5 µM | GI50 [37] > 18.5 µM | GI50 [38] 14.6 µM | GI50 [39] 13.4 µM | GI50 [40] 17.8 µM | GI50 [41] 11.9 µM | GI50 [42] > 12.4 µM | GI50 [43] > 25 µM | GI50 [44] > 25 µM | GI50 [45] > 25 µM | GI50 [46] 18.7 µM | GI50 [47] > 23.3 µM | GI50 [48] > 25 µM | GI50 [49] 4.66 µM | GI50 [50] 10.3 µM | GI50 [51] > 25 µM | GI50 [52] 18.5 µM | GI50 [53] 24.1 µM | GI50 [54] 13.3 µM | GI50 [55] 16.2 µM | GI50 [56] 6.37 µM | GI50 [57] 6.35 µM
> 25 µM: TGI [1] | TGI [2] | TGI [3] | TGI [4] | TGI [5] | TGI [6] | TGI [7] | TGI [8] | TGI [9] | TGI [10] | TGI [11] | TGI [12] | TGI [13] | TGI [14] | TGI [15] | TGI [16] | TGI [17] | TGI [19] | TGI [20] | TGI [21] | TGI [22] | TGI [23] | TGI [24] | TGI [25] | TGI [26] | TGI [27] | TGI [28] | TGI [29] | TGI [30] | TGI [31] | TGI [32] | TGI [33] | TGI [34] | TGI [35] | TGI [36] | TGI [37] | TGI [38] | TGI [39] | TGI [40] | TGI [41] | TGI [42] | TGI [43] | TGI [44] | TGI [45] | TGI [46] | TGI [47] | TGI [48] | TGI [49] | TGI [50] | TGI [51] | TGI [52] | TGI [53] | TGI [54] | TGI [55] | TGI [56]
> 22.9 µM: TGI [18]
